US12421212B2, “Substituted benzenecarboxamides as IL-17A modulators” (DiCE Alpha, Inc., priority 2019, dated 2025)

The compounds below were run against T1, IL-17A/A (Homo sapiens, UniProt Q16552) (assay: IL-17A/A HEK-Blue Cell Assay). Details: HEK-Blue IL-17A reporter cell line, SEAP readout at A630, 20 hours incubation with IL-17A/A; top concentration 10 uM, 1 uM or 0.3 uM.
T1 construct: purchased Genscript Z03228
T1 sequence (Q16552 24-155): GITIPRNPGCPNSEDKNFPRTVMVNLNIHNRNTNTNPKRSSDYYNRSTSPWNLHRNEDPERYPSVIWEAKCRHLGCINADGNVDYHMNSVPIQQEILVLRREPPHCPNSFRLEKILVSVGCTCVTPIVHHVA
Format: cell-based

Structure (SMILES) | IL-17A/A inhibition (pIC50)
CCC(=O)N[C@H](Cc1ccc(NC(=O)[C@@H](NC(=O)c2ccnn2CC)C2CCCCC2)c(F)c1)C(=O)N1C[C@@H]2C[C@H]1CN2C [Compound 696] | X2a (compounds were evaluated up to 1 uM and did not inhibit activity by >80%, however they showed some activity at 1 uM (less than 80% and more than 20%))
CCC(=O)N[C@H](Cc1ccc(NC(=O)[C@@H](NC(=O)c2ccnn2CC)C2CCCCC2)c(F)c1)C(=O)N1CCN2CCCC[C@@H]2C1 [Compound 697] | X2a (compounds were evaluated up to 1 uM and did not inhibit activity by >80%, however they showed some activity at 1 uM (less than 80% and more than 20%))
CCC(=O)N[C@H](Cc1ccc(NC(=O)[C@@H](NC(=O)c2ccnn2CC)c2cccc3ccccc23)c(F)c1)C(=O)N1CCN(C)CC1 [Compound 698] | X2b (compounds were evaluated up to 1 uM and inhibited activity at 1 uM by less than 20%)
CCC(=O)N[C@H](Cc1ccc(NC(=O)[C@@H](NC(=O)c2cnc(C(=O)NC)s2)C2CCCCC2)c(F)c1)C(=O)N1CCN(C)CC1 [Compound 699] | X2b (compounds were evaluated up to 1 uM and inhibited activity at 1 uM by less than 20%)
CCn1nccc1C(=O)N[C@H](C(=O)Nc1ccc(C[C@@H](Nc2nc(N)nc(C(F)(F)F)n2)C(=O)N2CCN(C)CC2)cc1F)C1CCCCC1 [Compound 700] | X2a (compounds were evaluated up to 1 uM and did not inhibit activity by >80%, however they showed some activity at 1 uM (less than 80% and more than 20%))
CCn1nccc1C(=O)N[C@H](C(=O)Nc1ccc(C[C@@H](Nc2ncc(C#N)c(OC)n2)C(=O)N2CCN(C)CC2)cc1F)C1CCCCC1 [Compound 701] | X2a (compounds were evaluated up to 1 uM and did not inhibit activity by >80%, however they showed some activity at 1 uM (less than 80% and more than 20%))
CCn1nccc1C(=O)N[C@H](C(=O)Nc1ccc(C[C@@H](NC(=O)c2cn(C)cn2)C(=O)N2CCN(C)CC2)cc1F)C1CCCCC1 [Compound 702] | X2b (compounds were evaluated up to 1 uM and inhibited activity at 1 uM by less than 20%)
CCC(=O)N[C@H](Cc1ccc(NC(=O)[C@@H](NC(=O)c2cnn3c2CCC3)C2CCCCC2)c(F)c1)C(=O)N1CCN(C)CC1 [Compound 703] | X2a (compounds were evaluated up to 1 uM and did not inhibit activity by >80%, however they showed some activity at 1 uM (less than 80% and more than 20%))
CCC(=O)N[C@H](Cc1ccc(NC(=O)[C@@H](NC(=O)c2ccnn2CCO)C2CCCCC2)c(F)c1)C(=O)N1CCN(C)CC1 [Compound 704] | X2a (compounds were evaluated up to 1 uM and did not inhibit activity by >80%, however they showed some activity at 1 uM (less than 80% and more than 20%))
CCC(=O)N[C@H](Cc1ccc(NC(=O)[C@@H](NC(=O)c2noc3c2CNCC3)C2CCCCC2)c(F)c1)C(=O)N1CCN(C)CC1 [Compound 705] | X2b (compounds were evaluated up to 1 uM and inhibited activity at 1 uM by less than 20%)
CCC(=O)N[C@H](Cc1ccc(NC(=O)[C@@H](NC(=O)c2nn(C)c3c2CNCC3)C2CCCCC2)c(F)c1)C(=O)N1CCN(C)CC1 [Compound 706] | X2b (compounds were evaluated up to 1 uM and inhibited activity at 1 uM by less than 20%)
CCC(=O)N[C@H](Cc1ccc(NC(=O)[C@@H](NC(=O)c2coc3c2C(=O)NCC3)C2CCCCC2)c(F)c1)C(=O)N1CCN(C)CC1 [Compound 708] | X2b (compounds were evaluated up to 1 uM and inhibited activity at 1 uM by less than 20%)
CCC(=O)N[C@H](Cc1ccc(NC(=O)[C@@H](NC(=O)C(C)(C)c2ccccc2)C2CCCCC2)c(F)c1)C(=O)N1CCN(C)CC1 [Compound 709] | X2b (compounds were evaluated up to 1 uM and inhibited activity at 1 uM by less than 20%)
CCC(=O)N[C@H](Cc1ccc(NC(=O)[C@@H](NC(=O)C2(c3ccccc3)CC2)C2CCCCC2)c(F)c1)C(=O)N1CCN(C)CC1 [Compound 710] | X2b (compounds were evaluated up to 1 uM and inhibited activity at 1 uM by less than 20%)
CCC(=O)N[C@H](Cc1ccc(NC(=O)[C@@H](NC(=O)Cc2ccc(OC)nc2)C2CCCCC2)c(F)c1)C(=O)N1CCN(C)CC1 [Compound 711] | X2a (compounds were evaluated up to 1 uM and did not inhibit activity by >80%, however they showed some activity at 1 uM (less than 80% and more than 20%))
CCC(=O)N[C@H](Cc1ccc(NC(=O)[C@@H](NC(=O)C(F)(F)c2ccncc2)C2CCCCC2)c(F)c1)C(=O)N1CCN(C)CC1 [Compound 712] | X2a (compounds were evaluated up to 1 uM and did not inhibit activity by >80%, however they showed some activity at 1 uM (less than 80% and more than 20%))
CCC(=O)N[C@H](Cc1ccc(NC(=O)[C@@H](NC(=O)C(F)(F)c2ccc(=O)n(C)c2)C2CCCCC2)c(F)c1)C(=O)N1CCN(C)CC1 [Compound 713] | X2b (compounds were evaluated up to 1 uM and inhibited activity at 1 uM by less than 20%)
CCC(=O)N[C@H](Cc1ccc(NC(=O)[C@@H](NC(=O)C(F)(F)C2(O)CCCC2)C2CCCCC2)c(F)c1)C(=O)N1CCN(C)CC1 [Compound 715] | X2b (compounds were evaluated up to 1 uM and inhibited activity at 1 uM by less than 20%)
CCC(=O)N[C@H](Cc1ccc(NC(=O)[C@@H](NC(=O)c2cnc(CNS(C)(=O)=O)n2C)C2CCCCC2)c(F)c1)C(=O)N1CCN(C)CC1 [Compound 716] | X2b (compounds were evaluated up to 1 uM and inhibited activity at 1 uM by less than 20%)
CCC(=O)N[C@H](Cc1ccc(NC(=O)[C@@H](NC(=O)c2cnc(CNC(C)=O)n2C)C2CCCCC2)c(F)c1)C(=O)N1CCN(C)CC1 [Compound 717] | X2b (compounds were evaluated up to 1 uM and inhibited activity at 1 uM by less than 20%)
CCC(=O)N[C@H](Cc1ccc(NC(=O)[C@@H](NC(=O)c2ccc(S(=O)(=O)NC)s2)C2CCCCC2)c(F)c1)C(=O)N1CCN(C)CC1 [Compound 718] | X2a (compounds were evaluated up to 1 uM and did not inhibit activity by >80%, however they showed some activity at 1 uM (less than 80% and more than 20%))

Same assay, conditions: HEK-Blue IL-17A reporter cell line, SEAP readout at A630, 20 hours incubation with IL-17A/A; top concentration 10 uM, 1 uM or 0.3 uM; read-out: IL-17A/A inhibition (pIC50) (converted)

Structure (SMILES) | IC50
CCC(=O)N[C@H](Cc1ccc(NC(=O)[C@@H](NC(=O)c2ccnn2CC)C2CCC(F)(F)CC2)c(F)c1)C(=O)N1CCN(C)CC1 [Compound 689] | 0.1 to 10 µM
CCC(=O)N[C@H](Cc1ccc(NC(=O)[C@@H](NC(=O)c2ccnn2CC)C2CCCCC2)c(F)c1)C(=O)N1CCNC2(CC2)C1 [Compound 690] | 0.1 to 10 µM
CCC(=O)N[C@H](Cc1ccc(NC(=O)[C@@H](NC(=O)c2ccnn2CC)C2CCCCC2)cc1Cl)C(=O)N1CCN(C)CC1 [Compound 691] | 0.1 to 10 µM
CCC(=O)N[C@H](Cc1ccc(NC(=O)[C@@H](NC(=O)c2conc2CC)C2CCC(F)(F)CC2)c(F)c1)C(=O)N1CCN(C)CC1 [Compound 692] | 0.1 to 10 µM
CCC(=O)NC(Cc1ccc(NC(=O)[C@@H](NC(=O)c2ccnn2CC)C2CCCCC2)c(F)c1)C(=O)N1CCN2CCOCC2C1 (stereo partly shown) [Compound 693] | 0.1 to 10 µM
CCC(=O)N[C@H](Cc1ccc(NC(=O)[C@@H](NC(=O)c2ccnn2CC)C2CCCCC2)c(F)c1)C(=O)Nc1cccnc1 [Compound 694] | 0.1 to 10 µM
CCn1nccc1C(=O)N[C@H](C(=O)Nc1ccc([C@H](C)[C@@H](NC(=O)c2csc(N)n2)C(=O)N2CCN(C)CC2)cc1F)C1CCCCC1 [Compound 695] | 0.1 to 10 µM
